According to patent US11400101B2, “Treatment of allergic rhinitis using a combination of mometasone and olopatadine” (GLENMARK SPECIALTY S.A., priority 2013, dated 2022):
Marks after values point to notes of the source that are not given here.

Assays:
sneezing response = test: Sneezing response in ovalbumin induced rhinitis model (whole body plethysmography); type: in vivo, guinea pigs; details: for Inhibition of sneezing response (in words) / Number of Sneeze (0-50 min): MF 10 μg; for Percent inhibition of sneeze: MF 10 μg per animal, vs ovalbumin control; for Number of Sneeze (0-50 min): intranasal, ovalbumin challenged
Description: Male Dunkin Hartley guinea pigs were actively sensitized with a subcutaneous injection of 1.5 mg of ovalbumin and 20 mg of aluminum hydroxide gel on days 0 and 7. Guinea pigs were sensitized intranasally with 2% ovalbumin from days 14-17. On day 28, the animals were challenged with 6% ovalbumin intranasally. Mometasone furoate 10 μg was given intranasally 24 hours and 1 hour prior to the final ovalbumin challenge. Olopatadine hydrochloride was given intranasally 1 hour before the final ovalbumin challenge. The dosing volume was 40 μl/animal. The saline control group and ovalbumin control group received vehicle (40 μl, 0.1% Tween 80 in distilled water). Sneezing response was determined by using whole body plethysmography (Buxco Research Systems, USA) for 50 minutes after final saline or ovalbumin challenge. The procedure in Example 1 was repeated except 120 μg of olopatadine hydrochloride (based on the equivalent weight of olopatadine free base) was used. The animal groups in Table 3 below were used during this experiment. Compound administration was performed as in Example 1, except the dosing volume was 60 μl/animal. The saline control group and ovalbumin control group received vehicle (60 μl, 0.1% Tween 80 in distilled water). In vivo evaluations were performed as in Example 1.

[1] = Plasma pharmacokinetics of TP-1 in the Phase III study, day 1 and day 8 (steady state); type: in vivo, human; details: patients receiving TP-1 twice daily
Text: This study consisted of four visits to the study site. After the initial screening visit (Visit 1), subjects who met all study selection criteria were required to undergo a single-blind placebo run-in period for 7-10 days. Following the completion of the run-in period, eligible subjects meeting the randomization criteria were enrolled and randomized to one of the four treatment arms. Subjects were dispensed medication as per the randomization list. Randomized subjects were required to undergo a 2 week (14 days) treatment period as per the protocol to assess the efficacy and safety of the assigned treatment. Subjects were instructed to record the symptom scores in a symptom assessment diary. They were also scheduled to have at least two blood samples for PK assessment during the treatment period.
• Change from baseline in average AM and PM subject-reported 12-hour rTNSS (reflective TNSS) over the 14-day treatment period. Secondary Endpoints • Change from baseline in average AM and PM subject-reported 12-hour iTNSS (instantaneous TNSS) over the 14 day treatment period. • Change from baseline in average AM and PM subject-reported 12-hour rTOSS (reflective TOSS) over the 14-day treatment period. • Onset of action for each treatment are assessed by comparing the change from baseline in post-treatment iTNSS between each active treatment and placebo at defined time points (prior to first dose (pre-dose), 15 min, 30 min, 45 min, 60 min, 90 min, 120 min, 150 min, 180 min, 210 min, and 240 min) after the first study treatment for 4 hours. • Change from baseline in the overall Rhinoconjunctivitis Quality of Life questionnaire (RQLQ)—Standardized Activities (RQLQ(S)) score on Day 15 (Visit 4) for the Full Analysis Set (FAS). Pharmacokinetic Endpoints • Plasma PK: Maximum plasma concentration (Cmax), time to attain Cmax (Tmax), and area under the plasma concentration-time curve over the dosing interval (AUCtau) will be estimated for mometasone furoate and olopatadine on Day 1 and Day 8 based on the pharmacokinetic analysis set (PKAS). Tertiary Efficacy Endpoints Nasal Symptoms: • Change from baseline in AM subject-reported rTNSS over the 14-day treatment period. • Change from baseline in AM subject-reported iTNSS over the 14-day treatment period. • Change from baseline in PM subject-reported rTNSS over the 14-day treatment period. • Change from baseline in PM subject-reported iTNSS over the 14-day treatment period. • Change from baseline in subject-reported reflective individual nasal symptoms over the 14-day treatment period (AM, PM and average of AM and PM). • Change from baseline in subject-reported instantaneous individual nasal symptoms over the 14-day treatment period (AM, PM and average of AM and PM). • Change from baseline in average AM and PM subject-reported rTNSS and iTNSS for each day. • Change from baseline in AM subject-reported rTNSS and iTNSS for each day. • Change from baseline in PM subject-reported rTNSS and iTNSS for each day. […]

[2] = Pharmacokinetics of mometasone furoate, single-dose three-period cross-over study, Example 13; type: in vivo, human; details: single dose nasal spray
Description: The pharmacokinetics of mometasone furoate in a fixed dose combination of mometasone furoate and olopatadine hydrochloride nasal spray was evaluated in a clinical trial. The clinical trial was a randomized, single-center, single-dose, open-label, three-period, six-sequence, cross-over study to evaluate three treatments administered by nasal spray. The three treatments included a combination of mometasone furoate and olopatadine hydrochloride nasal spray, mometasone furoate nasal spray and Nasonex® nasal spray. […] The study consisted of a screening visit, 3 single-dose treatment periods with washout periods of 7 to 14 days between dosing in each treatment period, an early withdrawal visit if applicable, and a follow-up telephone call (or visit) 1 to 7 days after completing the third treatment period. A total of 30 subjects were randomized to 1 of 6 treatment sequences and received at least 1 dose of study drug. All 30 subjects were included in the safety analysis set and the pharmacokinetic subset. All but 2 subjects completed the study per protocol.

[3] = system: total cells and eosinophils in nasal lavage; test: Nasal lavage total cell count and eosinophils in ovalbumin induced rhinitis model; type: in vivo, guinea pigs; details: for Inhibition of total cell and eosinophils in nasal lavage (in words): MF 10 μg; for % inhibition of eosinophils / Percent inhibition of total cell count / Eosinophils × 10^5/ml nasal lavage / Total cell count × 10^5/ml nasal lavage: MF 10 μg per animal
Description: Male Dunkin Hartley guinea pigs were actively sensitized with a subcutaneous injection of 1.5 mg of ovalbumin and 20 mg of aluminum hydroxide gel on days 0 and 7. Guinea pigs were sensitized intranasally with 2% ovalbumin from days 14-17. On day 28, the animals were challenged with 6% ovalbumin intranasally. Mometasone furoate 10 μg was given intranasally 24 hours and 1 hour prior to the final ovalbumin challenge. Olopatadine hydrochloride was given intranasally 1 hour before the final ovalbumin challenge. The dosing volume was 40 μl/animal. The saline control group and ovalbumin control group received vehicle (40 μl, 0.1% Tween 80 in distilled water). Nasal lavage was performed at 4 hours after challenge of animals with saline or ovalbumin on day 28. Animals were anesthetized with an overdose of urethane, the trachea was exposed and nasal lavage was performed using 2 mL pre-warmed normal saline. The collected nasal lavage was taken for total cell count using a hemocytometer. The nasal lavage was centrifuged, and the cell pellet resuspended in 15 μL guinea pig serum and used for preparation of smears. Slides were stained with Leishman's stain and a differential cell count of 100 cells based on standard morphology was performed manually. The total number of eosinophils in each nasal lavage sample was calculated using the formula: [formula] Percent inhibition of eosinophils was calculated using the following formula: The procedure in Example 1 was repeated except 120 μg of olopatadine hydrochloride (based on the equivalent weight of olopatadine free base) was used. The animal groups in Table 3 below were used during this experiment. Compound administration was performed as in Example 1, except the dosing volume was 60 μl/animal. The saline control group and ovalbumin control group received vehicle (60 μl, 0.1% Tween 80 in distilled water). In vivo evaluations were performed as in Example 1.

[4] = Example 1, OH 50 μg, 4 hours after challenge

- Mometasone furoate AUCtau, Geo Mean ([1]; Day 1): 0.02616 ng·h/mL
- Mometasone furoate AUCtau, Mean ([1]; Day 1): 0.02856 ng·h/mL
- Mometasone furoate AUCtau, Min-Max ([1]; Day 1): 0.01211 to 0.07254 ng·h/mL
- Mometasone furoate Cmax, Geo Mean ([1]; Day 1): 6.27 pg/mL
- Mometasone furoate Cmax, Mean ([1]; Day 1): 6.78 pg/mL
- Mometasone furoate Cmax, Min-Max ([1]; Day 1): 2.67 to 12.80 pg/mL
- Mometasone furoate Tmax, Median ([1]; Day 1): 1.00 h
- Mometasone furoate AUCtau, Geo Mean ([1]; Day 8): 0.05267 ng·h/mL
- Mometasone furoate AUCtau, Mean ([1]; Day 8): 0.0584 ng·h/mL
- Mometasone furoate AUCtau, Min-Max ([1]; Day 8): 0.02568 to 0.12405 ng·h/mL
- Mometasone furoate Cmax, Geo Mean ([1]; Day 8): 9.17 pg/mL
- Mometasone furoate Cmax, Mean ([1]; Day 8): 9.92 pg/mL
- Mometasone furoate Cmax, Min-Max ([1]; Day 8): 3.58 to 16.10 pg/mL
- Mometasone furoate Tmax, Median ([1]; Day 8): 1.00 h
- Last time point until which quantifiable concentrations were observed [2]: 72 h
SMILES: C[C@@H]1C[C@H]2[C@@H]3CCC4=CC(=O)C=C[C@]4(C)[C@@]3(Cl)[C@@H](O)C[C@]2(C)[C@@]1(OC(=O)c1ccco1)C(=O)CCl [Mometasone Furoate, Mometasone furoate]
- Inhibition of sneezing response (in words) (sneezing response; Example 1, OH 50 μg): not effective
- Percent inhibition of sneeze (sneezing response; Example 1, OH 50 μg): 15%
- Number of Sneeze (0-50 min) (sneezing response; Example 1, per animal: OH 50 μg, combination 50 (OH) & 10 (MF)): 18.83
- Inhibition of sneezing response (in words) (sneezing response; Example 2, OH 120 μg): not effective
- Percent inhibition of sneeze (sneezing response; Example 2, OH 120 μg): −5%
- Number of Sneeze (0-50 min) (sneezing response; Example 2, per animal: OH 120 μg, combination 120 (OH) & 10 (MF)): 37.33
- Inhibition of total cell and eosinophils in nasal lavage (in words) ([3]; Example 1, OH 50 μg): significant inhibition
- % inhibition of eosinophils ([3]; Example 1, OH 50 μg): 46%
- Percent inhibition of total cell count ([3]; Example 1, OH 50 μg): 46%
- Eosinophils × 10^5/ml nasal lavage [3, 4]: 2.00* × 10^5/ml
- Total cell count × 10^5/ml nasal lavage [3, 4]: 3.90* × 10^5/ml
- Inhibition of total cell and eosinophils in nasal lavage (in words) ([3]; Example 2, OH 120 μg): significant inhibition
- % inhibition of eosinophils ([3]; Example 2, OH 120 μg): 20%
- Eosinophils × 10^5/ml nasal lavage ([3]; Example 2, OH 120 μg): 2.69 × 10^5/ml
- Percent inhibition of total cell count ([3]; Example 2, OH 120 μg): 30%
- Total cell count × 10^5/ml nasal lavage ([3]; Example 2, OH 120 μg): 4.96 × 10^5/ml
